Assay results from patent US7144731B2, “SCF antibody compositions and methods of using the same” (Amgen Inc., priority 1989, dated 2006).

Experiments:
KG-1 = KG-1 soft agar cloning assay; format: cell-based, human; conditions: 50 μl assayed (5 ng/ml)
Procedure: Another activity of recombinant human SCF is the ability to cause proliferation in soft agar of the human acute myelogenous leukemia (AML) cell line, KG-1 (ATCC CCL 246). COS-1 supernatants from transfected cells were tested in a KG-1 agar cloning assay [Koeffler et al., Science, 200, 1153–1154 (1978)] essentially as described except cells were plated at 3000/ml.

normal human bone marrow = experiment: Human CFU-GM assay; format: cell-based; conditions: average of triplicate cultures; SCF = COS-1 supernatant 4 days after transfection
HIV = conditions: other studies; cited from earlier work
human bone marrow = experiment: Human bone marrow colony assay; format: cell-based; conditions: agar colony assay, factors alone or combined
Summary of the method: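 Ficoll-purified normal human marrow cells were cultured 14 days under low oxygen (7% O2, 10% CO2) in methylcellulose medium containing EPO (20 U/ml). Colonies counted were only those 0.2 mm or larger. Test material was recombinant human SCF (residues 1–162) from COS-1 supernatants, also combined with other factors.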

[1] = tested on: 5-FU treated mouse bone marrow cells; experiment: HPP-CFC assay; format: cell-based; conditions: typical assay; plated with CSF-1 or IL-6
Text: There are a variety of biological activities which can be attributed to the natural mammalian rat SCF as well as the recombinant rat SCF protein. One such activity is its effect on early hematopoietic cells. This activity can be measured in a High Proliferative Potential Colony Forming Cell (HPP-CFC) assay [Zsebo, et al., supra (1988)]. To investigate the effects of factors on early hematopoietic cells, the HPP-CFC assay system utilizes mouse bone marrow derived from animals 2 days after 5-fluorouracil (5-FU) treatment. […] The rat SCF is plated in the presence of CSF-1 or IL-6 in semi-solid agar cultures. The agar cultures contain McCoys complete medium (GIBCO), 20% fetal bovine serum, 0.3% agar, and 2×10^5 bone marrow cells/ml. The McCoys complete medium contains the following components: 1× McCoys medium supplemented with 0.1 mM pyruvate, 0.24× essential amino acids, 0.24× non-essential amino acids, 0.027% sodium bicarbonate, 0.24× vitamins, 0.72 mM glutamine, 25 μg/ml L-serine, and 12 μg/ml L-asparagine. The bone marrow cells are obtained from Balb/c mice injected i.v. with 150 mg/kg 5-FU. The femurs are harvested 2 days post 5-FU treatment of the mice and bone marrow is flushed out. The red blood cells are lysed with red blood cell lysing reagent (Becton Dickenson) prior to plating. Test substances are plated with the above mixture in 30 mm dishes. Fourteen days later the colonies (>1 mm in diameter) which contain thousands of cells are scored. This assay was used throughout the purification of natural mammalian cell-derived rat SCF.

[2] = tested on: bone marrow cells (CFU-S); experiment: pre-CFU-S assay; format: cell-based, mouse
Procedure: The in vitro survival and proliferation of primitive stem cells is critical to the success of gene transfer mediated by retroviral insertion or other known methods of gene transfer. The effect of SCF on the in vitro maintenance and/or proliferation of primitive progenitor cells has been studied in two systems which have been described previously [Bodine et al., Proc. Natl. Acad. Sci. 86 8897–8901, 1989]. The first is a pre-CFU-S assay wherein bone marrow cells are incubated for up to six days in suspension culture in the presence of growth factors. Aliquots are injected into lethally iradiated mice and the mice sacrificed at 12–14 days for quantitation of spleen focus formation. […] The second is a competitive repopulation assay which measures the effects of growth factors on recovery and biological activity of cells capable of sustaining long-term hematopoiesis. Cells from two congenic strains of mice differing for a hemoglobin marker are incubated in suspension independently, cells from one strain as a control and cells from a second under experimental conditions. After incubation, equal numbers of bone marrow cells from both cultures are mixed and injected into W/W^v recipients.

[3] = tested on: murine mast cell line, MC/9; experiment: MC/9 ^3H-thymidine uptake assay; format: cell-based; conditions: typical
Procedure: Another useful biological activity of both naturally-derived and recombinant rat SCF is the ability to cause the proliferation of the […] murine mast cell line, MC/9 (ATCC CRL 8306). MC/9 cells are cultured with a source of […] according to the ATCC CRL 8306 protocol. The medium used in the bioassay is RPMI 1640, 4% fetal bovine serum, 5×10^−5M 2-mercaptoethanol, and 1× glutamine-pen-strep. The MC/9 cells proliferate in response to SCF without the requirement for other growth factors. This proliferation is measured by first culturing the cells for 24 h without growth factors, plating 5000 cells in each well of 96 well plates with test sample for 48 h, pulsing for 4 h with 0.5 uCi ^3H-thymidine (specific activity 20 Ci/mmol), harvesting the solution onto glass fiber filters, and then measuring specifically-bound radioactivity. This assay was used in the purification of mammalian cell derived rat SCF after the ACA 54 gel filtration step, section C2 of this Example. Typically, SCF caused a 4–10 fold increase in CPM over background.

normal mouse bone marrow = experiment: CFU-GM assay on normal mouse bone marrow; format: cell-based; conditions: 10 day period, no other factors
Procedure: The action of purified mammalian SCF, both naturally-derived and recombinant, free from interfering colony stimulating factors (CSFs), on normal undepleted mouse bone marrow has been ascertained. A CFU-GM assay [Broxmeyer et al. Exp. Hematol., 5, 87 (1977)] is used to evaluate the effect of SCF on normal marrow. Briefly, total bone marrow cells after lysis of red blood cells are plated in semi-solid agar cultures containing the test substance. After.10 days, the colonies containing clusters of >40 cells are scored. The agar cultures can be dried down onto glass slides and the morphology of the cells can be determined via specific histological stains.

Molecule | Colony #/3000 Cells ± SD (KG-1) | Colony #/100,000 cells (±SEM) (normal human bone marrow) | replication of HIV in partially purified primary peripheral blood monocytes (HIV) | Colony #/10^5 cells (14 Days) (human bone marrow) | HPP-CFC per 200,000 cells plated [1] | activity in the pre-CFU-S assay [2] | increase in CPM over background [3] | colonies from 200,000 cells plated (normal mouse bone marrow)
GM-CSF: human granulocyte-macrophage colony stimulating factor | 14 ± 5 | 7 ± 1 | significantly increase replication of HIV | 14 ± 2 | – | – | – | –
rat SCF: rat stem cell factor, natural (purified from BRL 3A conditioned medium) or recombinant; form not specified at the place (protein, UniProt P21581 26-190, looked up) Soluble KIT ligand: QEICRNPVTDNVKDITKLVANLPNDYMITLNYVAGMDVLPSHCWLRDMVTHLSVSLTTLLDKFSNISEGLSNYSIIDKLGKIVDDLVACMEENAPKNVKESLKKPETRNFTPEEFFSIFNRSIDAFKDFMVASDTSDCVLSSTLGPEKDSRVSVTKPFMLPPVAA | – | – | – | – | approximately 50 | very little activity | 4–10 fold | over 100
